Tests used:
CEM cells [1] = assay: Cell cycle analysis of asynchronous cells by flow cytometry (S-phase population, S-phase arrest); assay type: cell-based, human; details: for percentage of cell population in S-phase: asynchronous CEM, 12 h, VE-822 1 µM, DI-82 1 µM
Experimental: Cell cycle histograms. Cells were plated at a density of 0.5 x 10^6 cells/mL in respective media or drug treated media. Following 24 h incubation, cells were harvested and washed twice with PBS twice before staining with 0.5 ml of propidium iodide (Calbiochem, #P3566, 1 µg/mL) solution containing Ribonuclease A and 0.3% Triton-X 100. The samples were protected from light before acquisition by flow cytometry.
Cell cycle kinetics and cell cycle progression by intracellular detection of DNA-incorporated 5-ethynyl-2-deoxyuridine (EdU). CEM T-ALL cells were plated at a density of 0.5 x 10^6 cells/mL. Cells were pulsed with 10 µM EdU (Invitrogen) for 1 h, washed twice with PBS, and released in fresh media containing 5 µM deoxyribonucleosides, with and without drugs. Cells were collected at different time points following release in fresh media, and then fixed with 4% paraformaldehyde and permeabilized using saponin perm/wash reagent (Invitrogen). Cells were then stained with azide-Alexa Fluor 647 by Click reaction according to manufacturer’s protocol (Invitrogen; Click-iT EdU Flow cytometry kit, #C10634). […]

CEM cells [2] = assay: Phospho-histone 3 (H3 pS10) staining, flow cytometry; assay type: cell-based, human; details: 500 nM 3-AP, 1 µM VE-822, 1 µM dCKi, 24 h
Experimental: Phospho-histone 3 staining. Cells were treated with drug combinations of three drugs. 24 h following treatment, cells were fixed and permeabilized with 1% PFA and 1X Perm/wash solution respectively.
Following fixation and permeabilization, cells were stained intracellularly with pH3 Ser10 antibody conjugated to AF647 (Cell signaling, #12230). Cells were then washed with PBS, stained with 0.5 mL of DAPI for DNA content (1 µg/mL in 2% FBS in PBS) before data acquisition. […]
FACS analysis. All flow cytometry data were acquired on five-laser LSRII cytometers (BD) for analysis, and analyzed using FlowJo software (Tree Star). The cell cycle durations were calculated using equations for multiple time-point measurements according to previously published methods (Terry and White, 2006).

Structure (SMILES) | concentration inducing S-phase arrest (CEM cells [1]; CEM, 24 h) [µM] | H3 pS10 plot, upper percentage (gate not given) (CEM cells [2]) [%] | percentage of cell population in S-phase (CEM cells [1]; + dNTP (10 µM)) [%] | percentage of cell population in S-phase (CEM cells [1]; – dNTP) [%]
NC(=S)N/N=C/c1ncccc1N [3-AP] | 0.5 | 1.8 | – | –
CNCc1ccc(-c2cc(-c3nc(-c4ccc(S(=O)(=O)C(C)C)cc4)cnc3N)on2)cc1 [VE-822] | – | 6.5 | 37 | 42
COc1ccc(-c2nc([C@@H](C)Sc3nc(N)cc(N)n3)c(C)s2)cc1OCCNS(C)(=O)=O [dCKi] | – | 2.4 | 31 | 30

Source: PMC5556071, “ATR inhibition facilitates targeting of leukemia dependence on convergent nucleotide biosynthetic pathways” (Nature Communications, 2017)
